pEC50: −log10 of the molar value. Several values for one entry are separate records, joined by “and”; a condition that tells them apart may be missing. Equal values may be shown once. Read-outs that look alike come from different tables or passages of the source.
Assays:
Huh7 cells = conditions: initial screening
[1] = system: VSV-SARS-CoV-2-S pseudovirus; assay: microbe, parasite or virus in culture; type: cell-based; conditions: for pEC50: read-out: EC50
HEK293A2T2 cells = conditions: initial screening
SARS-CoV-2-nLUC [2] = assay: microbe, parasite or virus in culture; type: cell-based; conditions: for pEC50: Severe acute respiratory syndrome coronavirus 2, Vero C1008, 24 h, Fig 1G, Fig 5B, read-out: EC50
SARS-CoV-2-nLUC [3] = type: cell-based; conditions: Nirmatrelvir 5 uM, Lonafarnib 0 uM
SARS-CoV-2-nLUC [4] = type: cell-based
in vitro = conditions: African green monkey
SARS-CoV-2 = type: cell-based; set-up: TOA: unit not given here
viral RdRp = viral RdRp (Severe acute respiratory syndrome coronavirus 2, UniProt P0DTD1); assay: In vitro RdRp activity assay (RNA extension); type: biochemical, SARS-CoV-2; conditions: LNF 0.1, 1 and 10 μM; TEMPOL 100 μM
[5] = system: FTase (HDJ2 farnesylation); assay: HDJ2 electrophoretic mobility shift (Western blot); type: cell-based; conditions: 24 h treatment
[6] = system: SARS-CoV-2 strain USA-WA1/2020; type: in vivo, mouse; conditions: mouse, in vivo
[7] = system: SARS-CoV-2 strain USA-WA1/2020; type: in vivo, mouse; conditions: mouse, in vivo; remark: listed apart in the source
lysosomal compartment = assay: LysoTracker staining of VeroTA6 cells
Description: (A) VeroTA6 cells were seeded
post treatment, the cells were stained with lysotracker (Thermofisher, L7528) and visualized under
the microscope (left). The fluorescence intensity was captured and quantified for each treatment
B), the significance was calculated using one-way ANOVA with Dunnett’s test with multiple
comparison to the DMSO control, and the P values are depicted as ns for P>0.05, ** for P <0.01,

Compound	CC50 (Huh7 cells)	Max % [1]	pEC50 [1]	further results
Clc1ccc([C@H](c2ccccc2)N2CCN(C3CCCCC3)CC2)cc1 [NCGC00347039]	14.1 µM	70.8%	5.40	
CN1CCN([C@H](c2ccccc2)c2ccc(Cl)cc2)CC1 [NCGC00343774]	14.4 µM	66.4%		CC50 (HEK293A2T2 cells): > 30 µM
COc1ccc(CN2CCN([C@@H](c3ccccc3)c3ccc(Cl)cc3)CC2)c(OC)c1 [NCGC00346845]	24.6 µM	64.2%	4.65	
Cc1nc[nH]c1CN1CCN(C(=O)N[C@@H](CC(C)C)C(=O)O)[C@@H](Cc2ccccc2)C1=O [GGTI2418]				effect on viral replication (SARS-CoV-2-nLUC [2]; VeroE6, 15 μM GGTI, 24 h): no effect on viral replication
CN1CCC(N(Cc2cccs2)c2ccccc2)CC1 [NCGC00183847]	> 30 µM	64.0% and 54.6%	4.94 and 4.74	CC50 (HEK293A2T2 cells): > 30 µM
CCN1CCN(C(c2ccc(Cl)cc2)c2ccc(Cl)cc2)CC1 [NCGC00351414]	> 30 µM	83.6%		CC50 (HEK293A2T2 cells): > 30 µM
CC(C)(C)[C@H](NC(=O)C(F)(F)F)C(=O)N1C[C@H]2[C@@H]([C@H]1C(=O)N[C@H](C#N)C[C@@H]1CCNC1=O)C2(C)C [NRTV, nirmatrelvir]				Response (SARS-CoV-2-nLUC [3]): 21.0635 and 36.2768 and 23.2893; Response (SARS-CoV-2-nLUC [4]): 96.7462 and 94.1773 and 94.981; Response (SARS-CoV-2-nLUC [4]; Lonafarnib 0 uM, Nirmatrelvir 0.3125 uM, sheet S3B, replicates): 50.9786 and 35.7701 and 31.2174; Response (SARS-CoV-2-nLUC [4]; Lonafarnib 0 uM, Nirmatrelvir 0.625 uM, sheet S3B, replicates): 89.9445 and 77.1784 and 77.0959; Response (SARS-CoV-2-nLUC [4]; Lonafarnib 0 uM, Nirmatrelvir 2.5 uM, sheet S3B, replicates): 97.3124 and 96.7918 and 96.5986; Response (SARS-CoV-2-nLUC [4]; Lonafarnib 0 uM, Nirmatrelvir 5 uM, sheet S3B, replicates): 97.4859 and 97.2147 and 96.9835
CCN1CCN(C2c3ccccc3-c3ccc(Br)cc32)CC1 (stereo not drawn) [NCGC00351673]	> 30 µM	77.7%	4.55	
CN1CCC[C@@H]1CCO[C@](C)(c1ccccc1)c1ccc(Cl)cc1 [NCGC00016710]	> 30 µM			CC50 (HEK293A2T2 cells): > 30 µM
c1ccc2c(c1)Sc1ccccc1N2CC1CN2CCC1CC2 (stereo not drawn) [NCGC00183046]	26.3 µM			CC50 (HEK293A2T2 cells): > 30 µM
CN1CCC(CN2c3ccccc3Sc3ccccc32)C1 (stereo not drawn) [NCGC00014482]	> 30 µM			CC50 (HEK293A2T2 cells): > 30 µM
CN1CCC(N(c2ccccc2)c2ccccc2)CC1 [NCGC00351675]	> 30 µM	17.1%	< 4.00	
CN1CCCN([C@@H](c2ccccc2)c2ccc(Cl)cc2)CC1 [NCGC00018271]	> 30 µM			CC50 (HEK293A2T2 cells): > 30 µM
Cn1cncc1[C@@](N)(c1ccc(Cl)cc1)c1ccc2c(c1)c(-c1cccc(Cl)c1)cc(=O)n2C [Tipifarnib, tipifarnib]				CC50 at 24 h (in vitro): > 30 µM; pEC50 (SARS-CoV-2-nLUC [2]; VeroE6, 24 h): 5.05; Replication (SARS-CoV-2-nLUC [2]; Tipifarnib, log concentration 0.273001): 115.708 and 115.2 and 116.296 and 113.383; Replication (SARS-CoV-2-nLUC [2]; Tipifarnib, log concentration 0.875061): 62.3306 and 62.0856 and 61.494 and 61.1331; Replication (SARS-CoV-2-nLUC [2]; Tipifarnib, log concentration -0.630089): 101.05 and 102.091 and 101.412 and 103.944; Replication (SARS-CoV-2-nLUC [2]; Tipifarnib, log concentration -1.23215): 100.484 and 100.389 and 101.92 and 99.313; time-of-addition result (SARS-CoV-2): modest effect on the early stage of infection, while the efficacy was much higher in the late stage; TOA (SARS-CoV-2; treatment window (0,2)): 76.7425 and 75.484 and 113.203 and 99.7613 and 81.3458 and 84.3089 and 102.68 and 108.689; TOA (SARS-CoV-2; treatment window (-2,0)): 92.86 and 92.659 and 88.2304 and 87.5224 and 122.157 and 114.273 and 92.7843 and 93.347; TOA (SARS-CoV-2; treatment window (-2,2)): 31.6226 and 35.7452 and 33.0851 and 30.5839 and 34.705 and 34.7924 and 25.2067 and 23.5518
Clc1ccc(C(c2ccccc2)N2CCNCC2)cc1 (stereo not drawn) [NCGC00245963]	> 30 µM	99.5%		CC50 (HEK293A2T2 cells): > 30 µM
C(=C/c1ccccc1)/CN1CCN(C(c2ccccc2)c2ccccc2)CC1 [NCGC00015246]	22 µM	65.8%	< 4.52	
CC1(C)CC(O)CC(C)(C)N1[O] [TEMPOL]				polymerase activity, primer extension (viral RdRp): inhibited
COC(=O)[C@H](CCSC)NC(=O)c1ccc(NC[C@@H](N)CS)cc1-c1ccccc1 [FTI-277]				CC50 at 24 h (in vitro): 220 µM; anti-FTase activity, HDJ2 shift [5]: weaker anti-FTase activity; Replication (SARS-CoV-2-nLUC [2]; FTI-277, log concentration 0.670941): 89.119 and 77.5271 and 84.1138 and 103.187; Replication (SARS-CoV-2-nLUC [2]; FTI-277, log concentration 1.273): 92.4526 and 80.5819 and 108.059 and 113.995; Replication (SARS-CoV-2-nLUC [2]; FTI-277, log concentration 1.87506): 83.8498 and 84.554 and 94.5905 and 116.747; Replication (SARS-CoV-2-nLUC [2]; FTI-277, log concentration -0.232149): 89.4553 and 85.664 and 88.5087 and 105.35; pEC50 (SARS-CoV-2-nLUC [2]; VeroE6, 24 h): 3.96; time-of-addition result (SARS-CoV-2): modest effect on the early stage of infection, while the efficacy was much higher in the late stage; TOA (SARS-CoV-2; treatment window (0,24)): 1.616 and 2.237 and 1.147 and 1.155 and 1.238 and 1.196 and 1.435; TOA (SARS-CoV-2; treatment window (2,4)): 73.8837 and 74.2661 and 52.3189 and 51.5089 and 53.0507 and 54.4857 and 76.2725 and 76.8029; TOA (SARS-CoV-2; treatment window (-2,0)): 151.258 and 149.655 and 121.084 and 123.07 and 140.174 and 141.115 and 96.719 and 94.1082; TOA (SARS-CoV-2; treatment window (-2,2)): 54.1321 and 53.7538 and 48.4664 and 48.121 and 49.0338 and 47.603 and 41.7688 and 40.1735
CN1CCN([C@@H](c2ccccc2)c2ccc(Cl)cc2)CC1 [NCGC00343775]	11.2 µM	77.3%		CC50 (HEK293A2T2 cells): > 30 µM
CCC(CC)COC(=O)[C@H](C)N[P@](=O)(OC[C@H]1O[C@@](C#N)(c2ccc3c(N)ncnn23)[C@H](O)[C@@H]1O)Oc1ccccc1 [RDV, Remdesivir]				lung viral titer [6]: did not show much reduction in viral titers; composite clinical score [7]: much improved disease parameters; time-of-addition result (SARS-CoV-2): minimal effect when added for a limited duration at early time points, but showed maximum efficacy when it was added later after infection
CN1CCC(N(c2ccccc2)c2ccc(OC(C)(C)C)cc2)CC1 [NCGC00346851]	> 30 µM	68.3%	4.83	

Compound	CC50 (Huh7 cells)	Max % [1]	pEC50 [1]	further results
Clc1ccc(C(c2ccccc2)N2CCNCC2)cc1 (stereo not drawn) [NCGC00345879]	28 µM	100.0%	5.52	
CN1CCN(C(c2ccccc2)c2ccccc2)CC1 [NCGC00016421]	> 30 µM	58.1%	4.60	
FC(F)(F)CN1CCN([C@@H](c2ccccc2)c2ccc(Cl)cc2)CC1 [NCGC00351281]	> 30 µM	21.1%	< 4.00	
CN1CCN(C(c2ccccc2)c2ccc(Cl)cc2)CC1 (stereo not drawn) [NCGC00179384]				CC50 (HEK293A2T2 cells): > 30 µM
CCN(CC)CCCC(C)Nc1ccnc2cc(Cl)ccc12 (stereo not drawn) [CQ, Chloroquine]				LysoTracker fluorescence intensity (lysosomal compartment; VeroTA6, 10 μM, 30 min): significant reduction in fluorescence intensity; Lysotracker (lysosomal compartment; sheet S5A, individual measurements): 560.723 and 174.035 and 160.899 and 432.593 and 438.73 and 246.495 and 247.855 and 602.458 and 376.298 and 321.5 and 378.198 and 326.501 and 374.374 and 217.144 and 290.704 and 270.841 and 377.374 and 275.759 and 524.267 and 701.544 and 422.374
OCCOCCN1CCN([C@@H](c2ccccc2)c2ccc(Cl)cc2)CC1 [NCGC00018255]	> 30 µM	26.3%	< 4.00	
CN(C)CCCN1c2ccccc2Sc2ccccc21 [NCGC00015829]	18.4 µM			CC50 (HEK293A2T2 cells): > 30 µM
Cl.Cl.O=C(O)COCCN1CCN(C(c2ccccc2)c2ccc(Cl)cc2)CC1 (stereo not drawn) [NCGC00016949]	> 30 µM	29.7%	< 4.52	
CC(=O)N1CCN([C@@H](c2ccccc2)c2ccc(Cl)cc2)CC1 [NCGC00347049]	> 30 µM		< 4.00	
Clc1ccc(C(c2ccc(Cl)cc2)N2CCOCC2)cc1 [NCGC00354586]	> 30 µM		< 4.00	
COc1ccc(CN(CCN(C)C)c2ccccn2)cc1 [NCGC00015822]		49.2%	< 4.52	
CN(C)CCN(Cc1ccc(Cl)cc1)c1ccccn1 [NCGC00016672]		77.6%	4.95	
Cc1ccccc1[C@@H](OCCN(C)C)c1ccccc1 [NCGC00015771]		25.1%	< 4.52	
Cc1cccn2c(=O)c(-c3nnn[n-]3)cnc12.[K+] [NCGC00167434]		24.2%	< 4.52	
C[C@@H](CN1c2ccccc2Sc2ccccc21)N(C)C [NCGC00015817]		87.0%	5.35	
OC(c1ccccc1)(c1ccccc1)C1CN2CCC1CC2 (stereo not drawn) [NCGC00160492]			< 4.52	
CN(C)C(=O)COC(=O)Cc1ccc(OC(=O)c2ccc(NC(=N)N)cc2)cc1 [camostat]				time-of-addition result (SARS-CoV-2): only E64d, and not camostat, was effective in blocking the entry step
Clc1ccc(C(c2ccccc2)N2CCNCC2)cc1 (stereo not drawn) [NCGC00345880]	13.4 µM	99.6% and 75.2%		CC50 (HEK293A2T2 cells): > 30 µM
CN1CCN(C(c2ccc(Cl)cc2)c2ccc(Cl)cc2)CC1 [NCGC00351413]	12.9 µM	67.9%	5.59	
CN(C)CC[C@H](c1ccc(Cl)cc1)c1ccccn1 [NCGC00015227]			< 4.52	
CN1CCC(=C2c3ccccc3CCc3cccnc32)CC1 [NCGC00182705]		45.5%	< 4.52	

From article PMC11721293 (JCI Insight, 2025)
